Data published in publication PMC6004018, “Dual-functional peptide with defective interfering genes effectively protects mice against avian and seasonal influenza” (Nature Communications, 2018).
Converted amounts (≈) assume the structure as drawn. Like-named read-outs stand apart in the source and are kept apart here. Residues, ends and D or L forms follow the SMILES beside them.

Columns and labels:
[1] = test system: A(H7N7) virus; type: cell-based
[2] = test system: A(H1N1)pdm09 virus; parameters: species or system BALB/c female mice; settings: in vivo
[3] = test system: A(H1N1)pdm09 virus; parameters: species or system BALB/c female mice; settings: mouse, in vivo
[4] = test system: A(H7N7) virus; parameters: species or system BALB/c female mice; settings: mouse, in vivo
[5] = test system: A(H7N7) virus; settings: 1 h, pH 7.4
[6] = test system: A(H1N1)pdm09 virus; settings: 1 h, pH 7.4
[7] = test system: 293T cells; test: MTT cytotoxicity assay in 293T cells; settings: 24 h incubation at 37 °C, DMEM with 1% FBS, three independent experiments
[8] = test system: MDCK cells; test: MTT cytotoxicity assay in MDCK cells; settings: 24 h incubation at 37 °C, DMEM with 1% FBS, three independent experiments
[9] = test system: endosomal acidification; settings: cited from earlier work
[10] = test system: H7N7 virus
[11] = test system: plasmid DNA
[12] = test system: HA-mediated membrane fusion (H7N7 HA in 293T cells); settings: pH 5
[13] = target: viral HA protein (H1N1 glycoprotein HA1) (Influenza A virus, UniProt C3W5S1); settings: ELISA (peptide 0.1 μg per well, HA1 2 μg ml-1) and western blot (peptide 1 μg)
[14] = test system: A(H1N1)pdm09 virus; type: cell-based
[15] = test system: endosomal acidification in MDCK cells; test: Endosomal acidification analysis in live cells; type: cell-based, canine; settings: pHrodo Red dextran, P1 25.0 μg ml-1, TAT-P1 3.1 μg ml-1, bafilomycin A1 100.0 nM, PA1 25.0 μg ml-1
[16] = test system: 293T cells

Chain of viral HA protein (H1N1 glycoprotein HA1) (C3W5S1 18-344 limits assumed): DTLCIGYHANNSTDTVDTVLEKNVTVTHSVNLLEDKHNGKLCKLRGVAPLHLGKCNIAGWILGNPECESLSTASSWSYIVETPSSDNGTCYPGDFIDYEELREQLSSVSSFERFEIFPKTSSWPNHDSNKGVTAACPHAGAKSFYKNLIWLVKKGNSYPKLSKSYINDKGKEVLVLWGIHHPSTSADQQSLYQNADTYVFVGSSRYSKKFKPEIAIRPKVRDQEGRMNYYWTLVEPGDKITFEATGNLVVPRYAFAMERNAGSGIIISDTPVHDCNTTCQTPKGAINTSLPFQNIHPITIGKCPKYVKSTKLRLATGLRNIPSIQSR

## CC(=O)N[C@H]1[C@H]([C@H](O)[C@H](O)CO)OC(C(=O)O)=C[C@@H]1N=C(N)N [zanamivir]
[1]
  susceptibility of virus to zanamivir: reduced susceptibility
[2]
  viral titers / viral replication in mouse lungs: significantly reduced
[2]; mouse
  IL-6 expression in mice: significantly reduced
  body weight loss: significantly reduced
  survival: 90%
[3]
  survival: 90%
[4]
  body weight loss: significantly less body weight loss
  survival: 40%

## CC[C@H](C)[C@H](NC(=O)[C@H](CCCNC(=N)N)NC(=O)[C@H](CS)NC(=O)[C@H](CCCNC(=N)N)NC(=O)[C@@H](NC(=O)[C@H](CCCNC(=N)N)NC(=O)[C@H](Cc1ccccc1)NC(=O)[C@H](CCCNC(=N)N)NC(=O)CNC(=O)[C@H](CS)NC(=O)[C@H](CC(C)C)NC(=O)[C@H](CCC(N)=O)NC(=O)[C@H](CCCNC(=N)N)NC(=O)[C@H](Cc1ccccc1)NC(=O)[C@H](CO)NC(=O)[C@@H]1CCCN1C(=O)[C@H](CS)NC(=O)[C@@H]1CCCN1C(=O)[C@H](CCCNC(=N)N)NC(=O)[C@H](Cc1c[nH]c2ccccc12)NC(=O)[C@H](CS)NC(=O)[C@H](CCCNC(=N)N)NC(=O)[C@H](CCCNC(=N)N)NC(=O)[C@H](CCCNC(=N)N)NC(=O)[C@H](CCC(N)=O)NC(=O)[C@H](CCCNC(=N)N)NC(=O)[C@H](CCCNC(=N)N)NC(=O)[C@H](CCCCN)NC(=O)[C@H](CCCCN)NC(=O)[C@H](CCCNC(=N)N)NC(=O)CNC(=O)[C@@H](N)Cc1ccc(O)cc1)[C@@H](C)CC)C(=O)N[C@@H](CCCNC(=N)N)C(=O)O [TAT-P3] (H-YGRKKRRQRRRCWRPCPSFRQLCGRFRIRCRIR-OH; N-terminus and C-terminus assumed)
[5]
  IC50 (H7N7): 0.78 µg/mL (≈ 0.179 µM)
[6]
  IC50 (H1N1): 0.68 µg/mL (≈ 0.156 µM)

## CC[C@H](C)[C@H](NC(=O)[C@H](CCCNC(=N)N)NC(=O)[C@H](CS)NC(=O)[C@H](CS)NC(=O)[C@H](CCCNC(=N)N)NC(=O)[C@@H](NC(=O)[C@H](CCCNC(=N)N)NC(=O)[C@H](Cc1ccccc1)NC(=O)[C@H](CCCNC(=N)N)NC(=O)CNC(=O)[C@H](CS)NC(=O)[C@H](CC(N)=O)NC(=O)[C@H](CCCNC(=N)N)NC(=O)[C@H](CCCCN)NC(=O)[C@H](CCCNC(=N)N)NC(=O)[C@H](Cc1ccccc1)NC(=O)[C@H](C)NC(=O)[C@H](CCCNC(=N)N)NC(=O)[C@@H]1CCCN1C(=O)[C@H](CS)NC(=O)[C@@H]1CCCN1C(=O)[C@H](CCCNC(=N)N)NC(=O)[C@H](Cc1c[nH]c2ccccc12)NC(=O)[C@H](CS)NC(=O)[C@H](CCCNC(=N)N)NC(=O)[C@H](CCCNC(=N)N)NC(=O)[C@H](CCCNC(=N)N)NC(=O)[C@H](CCC(N)=O)NC(=O)[C@H](CCCNC(=N)N)NC(=O)[C@H](CCCNC(=N)N)NC(=O)[C@H](CCCCN)NC(=O)[C@H](CCCCN)NC(=O)[C@H](CCCNC(=N)N)NC(=O)CNC(=O)[C@@H](N)Cc1ccc(O)cc1)[C@@H](C)CC)C(=O)N[C@@H](CCCNC(=N)N)C(=O)O [TAT-P2] (H-YGRKKRRQRRRCWRPCPRAFRKRNCGRFRIRCCRIR-OH; N-terminus and C-terminus assumed)
[5]
  IC50 (H7N7): 0.97 µg/mL (≈ 0.204 µM)
[6]
  IC50 (H1N1): 0.76 µg/mL (≈ 0.16 µM)

## N=C(N)NCCC[C@H](NC(=O)[C@H](CCCNC(=N)N)NC(=O)[C@H](CCCNC(=N)N)NC(=O)[C@H](CCC(N)=O)NC(=O)[C@H](CCCNC(=N)N)NC(=O)[C@H](CCCNC(=N)N)NC(=O)[C@H](CCCCN)NC(=O)[C@H](CCCCN)NC(=O)[C@H](CCCNC(=N)N)NC(=O)CNC(=O)[C@@H](N)Cc1ccc(O)cc1)C(=O)O [TAT, reference compound]
[7]
  CC50 (293T): > 400 µg/mL
[8]
  CC50 (MDCK): > 400 µg/mL

## CCN(CC)CCCC(C)Nc1ccnc2cc(Cl)ccc12 (centres unmarked) [chloroquine]
[9]
  effective concentrations for inhibiting endosomal acidification: ~ 100 μM

## CC[C@H](C)[C@H](NC(=O)[C@H](CCC(N)=O)NC(=O)[C@H](CCCNC(=N)N)NC(=O)[C@H](Cc1ccccc1)NC(=O)[C@H](C)NC(=O)[C@@H](NC(=O)[C@@H]1CCCN1C(=O)[C@H](CS)NC(=O)[C@@H]1CCCN1C(=O)CNC(=O)[C@H](Cc1c[nH]c2ccccc12)NC(=O)[C@H](CS)NC(=O)[C@H](CCCNC(=N)N)NC(=O)[C@H](CCCNC(=N)N)NC(=O)[C@H](CCCNC(=N)N)NC(=O)[C@H](CCC(N)=O)NC(=O)[C@H](CCCNC(=N)N)NC(=O)[C@H](CCCNC(=N)N)NC(=O)[C@H](CCCCN)NC(=O)[C@H](CCCCN)NC(=O)[C@H](CCCNC(=N)N)NC(=O)CNC(=O)[C@@H](N)Cc1ccc(O)cc1)[C@@H](C)O)C(=O)NCC(=O)N[C@@H](CC(N)=O)C(=O)N[C@@H](CS)C(=O)NCC(=O)N[C@@H](CCCNC(=N)N)C(=O)N[C@@H](Cc1ccccc1)C(=O)N[C@@H](CCCNC(=N)N)C(=O)N[C@H](C(=O)N[C@@H](CCCNC(=N)N)C(=O)N[C@@H](CS)C(=O)N[C@@H](CS)C(=O)N[C@@H](CCCNC(=N)N)C(=O)N[C@H](C(=O)N[C@@H](CCCNC(=N)N)C(=O)O)[C@@H](C)CC)C(C)C [TAT-P1] (H-YGRKKRRQRRRCWGPCPTAFRQIGNCGRFRVRCCRIR-OH)
[10]
  inhibition of viral replication in 293T cells: significantly inhibit viral replication
[5]
  IC50 (H7N7): 0.56 µg/mL (≈ 0.122 µM)
[11]
  weight ratio (peptide:DNA) at which complexes with DNA form: > 2
[12]
  inhibition of HA-mediated membrane fusion: did not inhibit HA-mediated membrane fusion
[13]
  binding to viral HA protein: bind to viral HA protein
[14]
  block of viral RNP release into the nuclei: blocked viral RNP release into the nuclei
[6]
  IC50 (H1N1): 0.67 µg/mL (≈ 0.146 µM)
[4]
  survival: 30%
[15]
  prevention of endosomal acidification: prevented endosomal acidification

## CO/C1=C\C(C)=C\[C@@H](C)[C@@H](O)[C@@H](C)C/C(C)=C/C=C/[C@H](OC)[C@@H]([C@@H](C)[C@@H](O)[C@H](C)[C@@]2(O)C[C@@H](O)[C@H](C)[C@@H](C(C)C)O2)OC1=O [Bafilomycin A1, reference compound]
[14]
  block of viral RNP release into the nuclei: blocked viral RNP release into the nuclei
[15]
  prevention of endosomal acidification: prevented endosomal acidification

## CC[C@H](C)[C@H](NC(=O)[C@H](CCC(N)=O)NC(=O)[C@H](CCCNC(=N)N)NC(=O)[C@H](Cc1ccccc1)NC(=O)[C@H](C)NC(=O)[C@@H](NC(=O)[C@@H]1CCCN1C(=O)[C@H](CS)NC(=O)[C@@H]1CCCN1C(=O)CNC(=O)[C@H](Cc1c[nH]c2ccccc12)NC(=O)[C@@H](N)CS)[C@@H](C)O)C(=O)NCC(=O)N[C@@H](CC(N)=O)C(=O)N[C@@H](CS)C(=O)NCC(=O)N[C@@H](CCCNC(=N)N)C(=O)N[C@@H](Cc1ccccc1)C(=O)N[C@@H](CCCNC(=N)N)C(=O)N[C@H](C(=O)N[C@@H](CCCNC(=N)N)C(=O)N[C@@H](CS)C(=O)N[C@@H](CS)C(=O)N[C@@H](CCCNC(=N)N)C(=O)N[C@H](C(=O)N[C@@H](CCCNC(=N)N)C(=O)O)[C@@H](C)CC)C(C)C [P1] (H-CWGPCPTAFRQIGNCGRFRVRCCRIR-OH)
[10]
  inhibition of viral replication in 293T cells: significantly inhibit viral replication
[5]
  IC50 (H7N7): 1.56 µg/mL (≈ 0.51 µM)
[12]
  inhibition of HA-mediated membrane fusion: did not inhibit HA-mediated membrane fusion
[13]
  binding to viral HA protein: bind to viral HA protein
[16]
  concentration that significantly enhances the transfection efficiency of plasmid DNA: 12.5
[14]
  block of viral RNP release into the nuclei: blocked viral RNP release into the nuclei
[7]
  CC50 (293T): > 400 µg/mL
[8]
  CC50 (MDCK): > 400 µg/mL
[15]
  prevention of endosomal acidification: prevented endosomal acidification
